Converted amounts (≈) assume the structure as drawn. Read-outs that look alike come from different tables or passages of the source.
Assays:
S. agalactiae GC 4564 = test: MIC, broth microdilution; conditions: Streptococcus agalactiae
S. aureus GC 2216 = test: MIC, broth microdilution; conditions: Staphylococcus aureus
P. aeruginosa GC 2214 = test: MIC, broth microdilution; conditions: Pseudomonas aeruginosa
E. coli GC 4559 = test: MIC, broth microdilution; conditions: Escherichia coli
E. coli GC 2203 = test: MIC, broth microdilution; conditions: Escherichia coli
E. coli GC 3226 = test: MIC, broth microdilution; conditions: Escherichia coli
S. pneumoniae* GC 4465 = test: MIC, broth microdilution; conditions: Streptococcus pneumoniae
S. aureus GC 6467 = test: MIC, broth microdilution; conditions: Staphylococcus aureus
E. coli GC 2270 = test: MIC, broth microdilution; conditions: Escherichia coli
E. faecalis GC 2267 = test: MIC, broth microdilution; conditions: Enterococcus faecalis
S. aureus GC 6335 = test: MIC, broth microdilution; conditions: Staphylococcus aureus
E. coli GC 2235 = test: MIC, broth microdilution; conditions: Escherichia coli
E. coli GC 2231 = test: MIC, broth microdilution; conditions: Escherichia coli
Staph. aureus Smith = test: In vivo activity (oral, iv; ED50) against Staph. aureus Smith in mice
E. coli GC 2232 = test: MIC, broth microdilution; conditions: Escherichia coli
E. faecium GC 4556 = test: MIC, broth microdilution; conditions: Enterococcus faecium
S. typhimurium GC 2172 = test: MIC, broth microdilution; conditions: Salmonella enterica, TYPHIMURIUM
E. faecalis GC 2242 = test: MIC, broth microdilution; conditions: Enterococcus faecalis
E. coli GC 4560 = test: MIC, broth microdilution; conditions: Escherichia coli
E. coli GC 2271 = test: MIC, broth microdilution; conditions: Escherichia coli
[1] = read-out: MINIMAL INHIBITORY CONCENTRATION MIC, pre-incubated in Human Serum
[2] = read-out: MINIMAL INHIBITORY CONCENTRATION MIC, pre-incubated in Mouse Serum
[3] = read-out: MINIMAL INHIBITORY CONCENTRATION MIC, pre-incubated in Water

MIC (S. agalactiae GC 4564; GC4564, read-out: MINIMAL INHIBITORY CONCENTRATION MIC, pre-incubated in Human Serum): 0.5 µg/mL (≈ 0.685 µM) | MIC (S. agalactiae GC 4564; GC4564, read-out: MINIMAL INHIBITORY CONCENTRATION MIC, pre-incubated in Mouse Serum): 0.25 µg/mL (≈ 0.343 µM) | MIC (S. agalactiae GC 4564; GC4564, read-out: MINIMAL INHIBITORY CONCENTRATION MIC, pre-incubated in Water): 0.5 µg/mL (≈ 0.685 µM) | MIC (S. aureus GC 2216; GC2216, read-out: MINIMAL INHIBITORY CONCENTRATION MIC, pre-incubated in Human Serum): 0.5 µg/mL (≈ 0.685 µM) | MIC (S. aureus GC 2216; GC2216, read-out: MINIMAL INHIBITORY CONCENTRATION MIC, pre-incubated in Mouse Serum): 1 µg/mL (≈ 1.37 µM) | MIC (S. aureus GC 2216; GC2216, read-out: MINIMAL INHIBITORY CONCENTRATION MIC, pre-incubated in Water): 1 µg/mL (≈ 1.37 µM) | MIC (P. aeruginosa GC 2214; GC2214, read-out: MINIMAL INHIBITORY CONCENTRATION MIC, pre-incubated in Human Serum): > 64 µg/mL | MIC (P. aeruginosa GC 2214; GC2214, read-out: MINIMAL INHIBITORY CONCENTRATION MIC, pre-incubated in Mouse Serum): 16 µg/mL (≈ 21.9 µM) | MIC (P. aeruginosa GC 2214; GC2214, read-out: MINIMAL INHIBITORY CONCENTRATION MIC, pre-incubated in Water): > 64 µg/mL | MIC (E. coli GC 4559; GC4559, read-out: MINIMAL INHIBITORY CONCENTRATION MIC, pre-incubated in Human Serum): 8 µg/mL (≈ 11 µM) | MIC (E. coli GC 4559; GC4559, read-out: MINIMAL INHIBITORY CONCENTRATION MIC, pre-incubated in Mouse Serum): 1 µg/mL (≈ 1.37 µM) | MIC (E. coli GC 4559; GC4559, read-out: MINIMAL INHIBITORY CONCENTRATION MIC, pre-incubated in Water): 64 µg/mL (≈ 87.7 µM) | MIC (E. coli GC 2203; GC2203, read-out: MINIMAL INHIBITORY CONCENTRATION MIC, pre-incubated in Human Serum): 4 µg/mL (≈ 5.48 µM) | MIC (E. coli GC 2203; GC2203, read-out: MINIMAL INHIBITORY CONCENTRATION MIC, pre-incubated in Mouse Serum): 0.5 µg/mL (≈ 0.685 µM) | MIC (E. coli GC 2203; GC2203, read-out: MINIMAL INHIBITORY CONCENTRATION MIC, pre-incubated in Water): 32 µg/mL (≈ 43.8 µM) | MIC (E. coli GC 3226; GC3226, read-out: MINIMAL INHIBITORY CONCENTRATION MIC, pre-incubated in Human Serum): 8 µg/mL (≈ 11 µM) | MIC (E. coli GC 3226; GC3226, read-out: MINIMAL INHIBITORY CONCENTRATION MIC, pre-incubated in Mouse Serum): 1 µg/mL (≈ 1.37 µM) | MIC (E. coli GC 3226; GC3226, read-out: MINIMAL INHIBITORY CONCENTRATION MIC, pre-incubated in Water): 64 µg/mL (≈ 87.7 µM) | MIC (S. pneumoniae* GC 4465; [1]): 0.25 µg/mL (≈ 0.343 µM) | MIC (S. pneumoniae* GC 4465; [2]): 0.25 µg/mL (≈ 0.343 µM) | MIC (S. pneumoniae* GC 4465; [3]): 0.5 µg/mL (≈ 0.685 µM) | MIC (S. aureus GC 6467; GC6467, read-out: MINIMAL INHIBITORY CONCENTRATION MIC, pre-incubated in Human Serum): 1 µg/mL (≈ 1.37 µM) | MIC (S. aureus GC 6467; GC6467, read-out: MINIMAL INHIBITORY CONCENTRATION MIC, pre-incubated in Mouse Serum): 1 µg/mL (≈ 1.37 µM) | MIC (S. aureus GC 6467; GC6467, read-out: MINIMAL INHIBITORY CONCENTRATION MIC, pre-incubated in Water): 2 µg/mL (≈ 2.74 µM) | MIC (E. coli GC 2270; GC2270, read-out: MINIMAL INHIBITORY CONCENTRATION MIC, pre-incubated in Human Serum): 4 µg/mL (≈ 5.48 µM) | MIC (E. coli GC 2270; GC2270, read-out: MINIMAL INHIBITORY CONCENTRATION MIC, pre-incubated in Mouse Serum): 0.5 µg/mL (≈ 0.685 µM) | MIC (E. coli GC 2270; GC2270, read-out: MINIMAL INHIBITORY CONCENTRATION MIC, pre-incubated in Water): 32 µg/mL (≈ 43.8 µM) | MIC (E. faecalis GC 2267; GC2267, read-out: MINIMAL INHIBITORY CONCENTRATION MIC, pre-incubated in Human Serum): 1 µg/mL (≈ 1.37 µM) | MIC (E. faecalis GC 2267; GC2267, read-out: MINIMAL INHIBITORY CONCENTRATION MIC, pre-incubated in Mouse Serum): 0.5 µg/mL (≈ 0.685 µM) | MIC (E. faecalis GC 2267; GC2267, read-out: MINIMAL INHIBITORY CONCENTRATION MIC, pre-incubated in Water): 2 µg/mL (≈ 2.74 µM) | MIC (S. aureus GC 6335; GC6335, read-out: MINIMAL INHIBITORY CONCENTRATION MIC, pre-incubated in Human Serum): 0.5 µg/mL (≈ 0.685 µM) | MIC (S. aureus GC 6335; GC6335, read-out: MINIMAL INHIBITORY CONCENTRATION MIC, pre-incubated in Mouse Serum): 1 µg/mL (≈ 1.37 µM) | MIC (S. aureus GC 6335; GC6335, read-out: MINIMAL INHIBITORY CONCENTRATION MIC, pre-incubated in Water): 2 µg/mL (≈ 2.74 µM) | MIC (E. coli GC 2235; GC2235, read-out: MINIMAL INHIBITORY CONCENTRATION MIC, pre-incubated in Human Serum): 4 µg/mL (≈ 5.48 µM) | MIC (E. coli GC 2235; GC2235, read-out: MINIMAL INHIBITORY CONCENTRATION MIC, pre-incubated in Mouse Serum): 0.5 µg/mL (≈ 0.685 µM) | MIC (E. coli GC 2235; GC2235, read-out: MINIMAL INHIBITORY CONCENTRATION MIC, pre-incubated in Water): 16 µg/mL (≈ 21.9 µM) | MIC (E. coli GC 2231; GC2231, read-out: MINIMAL INHIBITORY CONCENTRATION MIC, pre-incubated in Human Serum): 4 µg/mL (≈ 5.48 µM) | MIC (E. coli GC 2231; GC2231, read-out: MINIMAL INHIBITORY CONCENTRATION MIC, pre-incubated in Mouse Serum): 1 µg/mL (≈ 1.37 µM) | MIC (E. coli GC 2231; GC2231, read-out: MINIMAL INHIBITORY CONCENTRATION MIC, pre-incubated in Water): 32 µg/mL (≈ 43.8 µM) | MIC (E. coli GC 2232; GC2232, read-out: MINIMAL INHIBITORY CONCENTRATION MIC, pre-incubated in Human Serum): 4 µg/mL (≈ 5.48 µM) | MIC (E. coli GC 2232; GC2232, read-out: MINIMAL INHIBITORY CONCENTRATION MIC, pre-incubated in Mouse Serum): 1 µg/mL (≈ 1.37 µM) | MIC (E. coli GC 2232; GC2232, read-out: MINIMAL INHIBITORY CONCENTRATION MIC, pre-incubated in Water): 16 µg/mL (≈ 21.9 µM) | MIC (E. faecium GC 4556; GC4556, read-out: MINIMAL INHIBITORY CONCENTRATION MIC, pre-incubated in Human Serum): 1 µg/mL (≈ 1.37 µM) | MIC (E. faecium GC 4556; GC4556, read-out: MINIMAL INHIBITORY CONCENTRATION MIC, pre-incubated in Mouse Serum): 1 µg/mL (≈ 1.37 µM) | MIC (E. faecium GC 4556; GC4556, read-out: MINIMAL INHIBITORY CONCENTRATION MIC, pre-incubated in Water): 2 µg/mL (≈ 2.74 µM) | MIC (S. typhimurium GC 2172; [1]): 32 µg/mL (≈ 43.8 µM) | MIC (S. typhimurium GC 2172; [2]): 2 µg/mL (≈ 2.74 µM) | MIC (S. typhimurium GC 2172; [3]): > 64 µg/mL | MIC (E. faecalis GC 2242; GC2242, read-out: MINIMAL INHIBITORY CONCENTRATION MIC, pre-incubated in Human Serum): 1 µg/mL (≈ 1.37 µM) | MIC (E. faecalis GC 2242; GC2242, read-out: MINIMAL INHIBITORY CONCENTRATION MIC, pre-incubated in Mouse Serum): 1 µg/mL (≈ 1.37 µM) | MIC (E. faecalis GC 2242; GC2242, read-out: MINIMAL INHIBITORY CONCENTRATION MIC, pre-incubated in Water): 2 µg/mL (≈ 2.74 µM) | MIC (E. coli GC 4560; GC4560, read-out: MINIMAL INHIBITORY CONCENTRATION MIC, pre-incubated in Human Serum): 0.5 µg/mL (≈ 0.685 µM) | MIC (E. coli GC 4560; GC4560, read-out: MINIMAL INHIBITORY CONCENTRATION MIC, pre-incubated in Mouse Serum): 0.25 µg/mL (≈ 0.343 µM) | MIC (E. coli GC 4560; GC4560, read-out: MINIMAL INHIBITORY CONCENTRATION MIC, pre-incubated in Water): 2 µg/mL (≈ 2.74 µM) | MIC (E. coli GC 2271; GC2271, read-out: MINIMAL INHIBITORY CONCENTRATION MIC, pre-incubated in Human Serum): 4 µg/mL (≈ 5.48 µM) | MIC (E. coli GC 2271; GC2271, read-out: MINIMAL INHIBITORY CONCENTRATION MIC, pre-incubated in Mouse Serum): 0.5 µg/mL (≈ 0.685 µM) | MIC (E. coli GC 2271; GC2271, read-out: MINIMAL INHIBITORY CONCENTRATION MIC, pre-incubated in Water): 16 µg/mL (≈ 21.9 µM)
SMILES: CC(C)C(=O)OCOC(=O)N(CC(=O)Nc1cc(N(C)C)c2c(c1O)C(=O)C1=C(O)[C@]3(O)C(=O)C(C(N)=O)=C(O)[C@@H](N(C)C)[C@@H]3C[C@@H]1C2)C(C)(C)C [Example 45, ({[(2-{[(5aR,6aS,7S,10aS)-9-(aminocarbonyl)-4,7-bis(dimethylamino)-1,8,10a,11-tetrahydroxy-10,12-dioxo-5,5a,6,6a,7,10,10a,12-octahydrotetracen-2-yl]amino}-2-oxoethyl)(tert-butyl)amino]carbonyl}oxy)methyl 2-methylpropanoate]
ED50 (Staph. aureus Smith; Staphylococcus aureus, in Mus musculus, iv, read-out: ED50 SIV (Staph aureus Smith)): 0.66 mg/kg | ED50 (Staph. aureus Smith; Staphylococcus aureus, in Mus musculus, po, read-out: ED50 SOD (Staph aureus Smith)): 5.9 mg/kg | ED50 (Staph. aureus Smith; Staphylococcus aureus, in Mus musculus, po, read-out: ED50 Staph Smith SOD): 5.9 mg/kg | ED50 (Staph. aureus Smith; iv, read-out: ED50 Staph Smith SIV): 0.66 mg/kg

Reference: patent US20070049564A1 (Wyeth, priority 2005, published 2007)
